Key:
[1] = Absorption spectrum and colour of the n-decane solution of the dye; format: physicochemical; conditions: for Gram extinction coefficient: decane, at the absorption maximum wavelength; for Color of solution / Absorption maximum wavelength: n-decane solution; for Absorption maximum wavelength: wavelength range 350-800 nm
Method: (§1) The dye was added to n-decane, and this mixture was subjected to an ultrasonic treatment at 30° C. and ordinary pressure. When the dye completely dissolved, an additional amount of the dye was added so that the dye partly remained undissolved. The mixture thus treated was allowed to stand at room temperature (25° C.) for 12 hours and then subjected to centrifugal filtration with a 0.1-μm filter to obtain a saturated solution of the dye. This solution was diluted to an appropriate concentration and examined for absorption spectrum.
(§2) From values of absorption maximum wavelength in the wavelength range of 350-800 nm, gram extinction coefficient, and molar extinction coefficient which had been determined beforehand at an appropriate concentration and from the dilution ratio and the absorption spectrum of the diluted solution, the solubility (% by weight) and the product of the molar extinction coefficient at the absorption maximum wavelength and the molar concentration of the saturated solution were calculated.

[2] = Solubility of the dye in n-decane (saturated solution, 25° C., ordinary pressure); format: physicochemical; conditions: for Solubility compared with the comparative compound: from Table 1; for [Molar extinction coefficient at absorption maximum wavelength] × [molar concentration of saturated solution]: saturated solution at 25° C.; for Solubility (decane): saturated solution, 25° C., ordinary pressure, 0.1-μm filter
Method: as §1, §2

Gram extinction coefficient [1] [cm^2g^−1]	Color of solution [1]	Absorption maximum wavelength [1] [nm]	[Molar extinction coefficient at absorption maximum wavelength] × [molar concentration of saturated solution] [2] [cm⁻¹]	Solubility (decane) [2] [wt %]	SMILES	Solubility compared with the comparative compound [2]
61000	yellow	421	13000	30	CCCCc1ccc(N=Nc2ccc(N=Nc3c(CCCC)nn(C(C)(C)C)c3O)cc2)cc1 [1-2]	higher solubility than the comparative compound
69000	yellow	415	1400	3.1	CCc1nn(C(C)(C)C)c(O)c1N=Nc1ccc(N=Nc2ccccc2)cc1 [1-3]	higher solubility than the comparative compound
97000	almost no	416	10	0.014	Cc1nn(-c2ccccc2)c(O)c1N=Nc1ccc(N=Nc2ccccc2)cc1 [compound 1, reference compound]	

SMILES	Gram extinction coefficient [1] [cm^2g^−1]	Color of solution [1]	Absorption maximum wavelength [1] [nm]	[Molar extinction coefficient at absorption maximum wavelength] × [molar concentration of saturated solution] [2] [cm⁻¹]	Solubility (decane) [2] [wt %]	Solubility compared with the comparative compound [2]
CCCCc1nn(C(C)(C)C)c(O)c1N=Nc1ccc(N=Nc2ccccc2)cc1 [1-1]	62000	yellow	417	1900	4.2	higher solubility than the comparative compound

Source: patent publication US8143382B2, “Pyrazole disazo dye and ink containing the dye” (Mitsubishi Chemical Corporation, priority 2007, dated 2012)
